Here are results for 3 compounds from patent US12576069B2, “Compositions and methods for treating slow-flow vascular malformations” (YALE UNIVERSITY, priority 2019, dated 2026).

Data set [1] concerns venous malformation.
Experimental: A relatively healthy patient with severely symptomatic venous malformations of the subcutaneous and intramuscular components of their thigh was treated according to methods of the disclosure. Their lesions were examined and diagnosis of the condition was made and confirmed based on duplex ultrasound and contrast enhanced MRI. […] Solutions were delivered to the patient using an operating suite using a sterile syringe. A total of 2 mL of omnipaque intravenous contrast was added into the mixture for radiopacity purposes under fluoroscopy and for in vivo visualization of the drug. Final concentration of the mixture was approximately 1 mg/mL This mixture was agitated via a three-way stopcock in the absence of air. The venous malformations were accessed percutaneously, using ultrasound and x-ray guidance. […] Different components of this multi focal venous malformation were similarly targeted and treated. […] Needle access tracts were plugged using a collagen matrix foam, and a sterile dressing was applied. The procedure was done under general endotracheal anesthesia, and the patient received postoperative anti-inflammatory and analgesic medications. […] A healthy patient with a disfiguring, symptomatic venous malformation of the subcutaneous tissues of the left nare was treated according to methods of the disclosure. Their lesion was examined, and diagnosis of the condition was made and confirmed based on contrast enhanced MRI. […] Solutions were delivered to the patient using an operating suite using a sterile syringe. A total of 2 mL of omnipaque intravenous contrast was added into the mixture for radiopacity purposes under fluoroscopy and for in vivo visualization of the drug. Final concentration of the mixture was approximately 1 mg/mL. This mixture was agitated via a three-way stopcock in the absence of air. The venous malformation was accessed percutaneously, using ultrasound and x-ray guidance. […] Different components of this focal venous malformation were similarly targeted and treated. […] Needle access tracts were plugged using a collagen matrix foam, and a sterile dressing was applied. The procedure was done under general endotracheal anesthesia, and the patient received postoperative anti-inflammatory and analgesic medications.
For data set [2] the following is noted: cited from earlier work.
The subject of data set [3] is congenital vascular malformations. As to conditions: conventional treatment of vascular malformations; at times lethal; cited from earlier work.
Data set [4] deals with complicated vascular malformations. As to conditions: cited from earlier work.
[5] abbreviates: oral rapamycin, toxicities attributable to rapamycin.

Where two headings read alike, the source gives them in different places.

As to `CO[C@H]1C[C@@H]2CC[C@@H](C)[C@@](O)(O2)C(=O)C(=O)N2CCCC[C@H]2C(=O)O[C@H]([C@H](C)C[C@@H]2CC[C@@H](OC(=O)C(C)(CO)CO)[C@H](OC)C2)CC(=O)[C@H](C)/C=C(\C)[C@@H](O)[C@@H](OC)C(=O)[C@H](C)C[C@H](C)/C=C/C=C/C=C/1C` [Temsirolimus], the “pain relief at follow-up” value in data set [1] (Example 1, post-operative day two, 14, and 90) is recorded as “excellent pain relief”. Also, the “venous flow in the malformation, color flow Doppler” value in data set [1] (Example 2, left nasal venous malformation, FIGS. 5A-5B) is on record as “diminished venous flow”. For the same compound, in data set [1] (Example 2, post-operative day 14 and day ~90), the “pain relief at follow-up” value is reported as “partial pain relief”. For the same compound, in data set [1] (human, in vivo), the “fevers or infection at follow-up” value is “no evidence of fevers or infection”; the “fevers, infection at follow-up” value is “no evidence of fevers, infection”; the “normal arterial flow adjacent to the malformation, spectral waveform analysis” value is listed as “preservation of intervening normal arterial network of the face”; the perioperative complications result is on record as “no perioperative complications”. Further, the post-operative labs entry in data set [1] (human, in vivo) is listed as “within expected, normal limits”. For the same compound, the “peak concentration Cmax, temsirolimus compared with sirolimus” value in data set [2] (IV infusion, theoretical comparison of equal units) is “almost similar”.
On to `CCO` [absolute ethanol, ethanol], for which the side effect profile result in data set [3] was “up to 50%”.
On to `CO[C@H]1C[C@@H]2CC[C@@H](C)[C@@](O)(O2)C(=O)C(=O)N2CCCC[C@H]2C(=O)O[C@H]([C@H](C)C[C@@H]2CC[C@@H](O)[C@H](OC)C2)CC(=O)[C@H](C)/C=C(\C)[C@@H](O)[C@@H](OC)C(=O)[C@H](C)C[C@H](C)/C=C/C=C/C=C/1C` [rapamycin], for which the “patients taken off of the study due to persistent adverse effects” value in data set [4] (oral rapamycin, phase II trial enrolling 61 patients) is “Two”. Further, in data set [4] (setting [5]), the “Grade 3 and higher blood/bone marrow toxicity, share of patients” value is on record as 27%; the “Grade 3 and higher gastrointestinal toxicity, share of patients” value is 3%; the “Grade 3 and higher metabolic/laboratory toxicity, share of patients” value is listed as 3%. Also, the “other commonly reported negative side effects” value in data set [4] (systemic rapamycin) was “stomatitis, headache, infections, myelodepression, acne, and hyperlipidemia”. The “sirolimus AUC relative to temsirolimus AUC” value in data set [2] (single 25 mg intravenous dose of temsirolimus, patients with cancer) was 2.7 fold.
